Solubility in water and solubility in acetone data for one molecule are collected here from patent US20180028424A1, “COMPOSITIONS FOR IMPROVING THE HEALTH OF HAIR, SKIN, AND NAILS” (FYBRANDS CORP., priority 2015, published 2018).

Structures are written as SMILES.

The nature of series [1]: solubility of silibinin in water. Format: physicochemical. From the text:
In certain embodiments, the disclosure provides compositions to deliver the active ingredient to the root bulb of the hair follicle. Silibinin is not soluble in water. Creating a cream formulation could possibly lead to clogging of pores at the site of the hair follicle, which could negatively affect restoration of the follicle. In certain aspects, the present disclosure relates to delivery of silibinin using oil-based formulations. Oil is absorbed into the stratum corneum and deeper layers of the skin where the root bulb cells are located.

Series [2] can be described thus: solubility of silibinin in acetone. Conditions: dissolved at 40-50° C. in Example 1. Format: physicochemical. As for the experimental part:
Silibinin is soluble in acetone. We evaluated the possibility that silibinin could be first dissolved in acetone and then put into solution with an oil carrier. Since acetone evaporates to completion out of any open system, it could be removed leaving the silibinin in solution. One should keep in mind that acetone is incredibly flammable, and methods for removing acetone should be chosen carefully.
Briefly, a total desired amount of silibinin was dissolved into acetone at moderate temperature (40-50° C.). Capric/capryllic triglyceride was then added with mixing until completely mixed. […] The solution was cooled with stirring. Rosemary EO 1 was added once the temperature was below 50° C., and the product was poured into dispensing containers for use by test subjects.

On to `COc1cc(C2Oc3cc([C@H]4Oc5cc(O)cc(O)c5C(=O)[C@@H]4O)ccc3OC2CO)ccc1O` (some centres unmarked) [Silibinin], for which, in series [1], the solubility in water entry was “not soluble”. Besides, the solubility in acetone result in series [2] is on record as “soluble”.
